Source: ChEMBL document CHEMBL1255438, “Comparative activities of TR-700 (torezolid) against staphylococcal blood isolates collected in Spain” (2010)
Converted amounts (≈) assume the structure as drawn.

Key:
Assay type in all cases: functional
Staphylococcus aureus [1] = assay: Antimicrobial activity against linezolid-susceptible Staphylococcus aureus assessed as inhibition of microbial growth at 2 ug/ml by CLSI method
Staphylococcus aureus [2] = assay: Antimicrobial activity against oxacillin-resistant coagulase-negative Staphylococcus aureus assessed as inhibition of microbial growth at 4 ug/ml by CLSI method
Staphylococcus [3] = assay: Antimicrobial activity against linezolid-susceptible coagulase-negative Staphylococcus assessed as inhibition of microbial growth at 1 ug/ml by CLSI method
Staphylococcus aureus [4] = assay: Antimicrobial activity against oxacillin-susceptible coagulase-negative Staphylococcus aureus assessed as inhibition of microbial growth at 0.5 ug/ml by CLSI method
Staphylococcus [5] = assay: Antimicrobial activity against oxacillin-susceptible coagulase-negative Staphylococcus aureus by CLSI method
Staphylococcus aureus [6] = assay: Antimicrobial activity against oxacillin-resistant Staphylococcus aureus by CLSI method
Staphylococcus aureus [7] = assay: Antimicrobial activity against oxacillin-susceptible coagulase-negative Staphylococcus aureus assessed as inhibition of microbial growth at 1 ug/ml by CLSI method
Staphylococcus aureus [8] = assay: Antimicrobial activity against linezolid-susceptible Staphylococcus aureus assessed as inhibition of microbial growth at 1 ug/ml by CLSI method
Staphylococcus aureus [9] = assay: Antimicrobial activity against linezolid-susceptible Staphylococcus aureus assessed as inhibition of microbial growth at 0.5 ug/ml by CLSI method
Staphylococcus [10] = assay: Antimicrobial activity against linezolid-susceptible coagulase-negative Staphylococcus assessed as inhibition of microbial growth at =< 0.25 ug/ml by CLSI method
Staphylococcus [11] = assay: Antimicrobial activity against linezolid-susceptible coagulase-negative Staphylococcus assessed as inhibition of microbial growth at 4 ug/ml by CLSI method
Staphylococcus aureus [12] = assay: Antimicrobial activity against oxacillin-susceptible Staphylococcus aureus by CLSI method
Staphylococcus aureus [13] = assay: Antimicrobial activity against oxacillin-resistant Staphylococcus aureus assessed as inhibition of microbial growth at 4 ug/ml by CLSI method
Staphylococcus aureus [14] = assay: Antimicrobial activity against oxacillin-susceptible Staphylococcus aureus assessed as percent susceptible strain by CLSI method
Staphylococcus aureus [15] = assay: Antimicrobial activity against oxacillin-susceptible Staphylococcus aureus assessed as inhibition of microbial growth at 0.5 ug/ml by CLSI method
Staphylococcus aureus [16] = assay: Antimicrobial activity against oxacillin-susceptible Staphylococcus aureus assessed as inhibition of microbial growth at 1 ug/ml by CLSI method
Staphylococcus [17] = assay: Antimicrobial activity against oxacillin-resistant coagulase-negative Staphylococcus aureus by CLSI method
Staphylococcus aureus [18] = assay: Antimicrobial activity against oxacillin-resistant Staphylococcus aureus assessed as inhibition of microbial growth at 2 ug/ml by CLSI method
Staphylococcus aureus [19] = assay: Antimicrobial activity against oxacillin-susceptible Staphylococcus aureus assessed as inhibition of microbial growth at 2 ug/ml by CLSI method
Staphylococcus [20] = assay: Antimicrobial activity against linezolid-susceptible coagulase-negative Staphylococcus assessed as inhibition of microbial growth at 0.5 ug/ml by CLSI method
Staphylococcus [21] = assay: Antimicrobial activity against linezolid-susceptible coagulase-negative Staphylococcus assessed as inhibition of microbial growth at 2 ug/ml by CLSI method
Staphylococcus aureus [22] = assay: Antimicrobial activity against oxacillin-susceptible coagulase-negative Staphylococcus aureus assessed as inhibition of microbial growth at =< 0.25 ug/ml by CLSI method
Staphylococcus [23] = assay: Antimicrobial activity against linezolid-susceptible coagulase-negative Staphylococcus assessed as percent susceptible strain by CLSI method
Staphylococcus aureus [24] = assay: Antimicrobial activity against oxacillin-resistant coagulase-negative Staphylococcus aureus assessed as inhibition of microbial growth at 1 ug/ml by CLSI method
Staphylococcus aureus [25] = assay: Antimicrobial activity against linezolid-susceptible Staphylococcus aureus by CLSI method
Staphylococcus [26] = assay: Antimicrobial activity against linezolid-resistant coagulase-negative Staphylococcus assessed as inhibition of microbial growth at 32 ug/ml by CLSI method
Staphylococcus aureus [27] = assay: Antimicrobial activity against linezolid-susceptible Staphylococcus aureus assessed as inhibition of microbial growth at =< 0.25 ug/ml by CLSI method
Staphylococcus aureus [28] = assay: Antimicrobial activity against oxacillin-resistant Staphylococcus aureus assessed as inhibition of microbial growth at =< 0.25 ug/ml by CLSI method
Staphylococcus [29] = assay: Antimicrobial activity against linezolid-susceptible coagulase-negative Staphylococcus by CLSI method
Staphylococcus aureus [30] = assay: Antimicrobial activity against oxacillin-resistant coagulase-negative Staphylococcus aureus assessed as inhibition of microbial growth at 2 ug/ml by CLSI method
Staphylococcus aureus [31] = assay: Antimicrobial activity against oxacillin-resistant Staphylococcus aureus assessed as inhibition of microbial growth at 1 ug/ml by CLSI method
Staphylococcus [32] = assay: Antimicrobial activity against linezolid-resistant coagulase-negative Staphylococcus assessed as inhibition of microbial growth at 128 ug/ml by CLSI method
Staphylococcus aureus [33] = assay: Antimicrobial activity against linezolid-resistant Staphylococcus aureus assessed as percent susceptible strain by CLSI method
Staphylococcus [34] = assay: Antimicrobial activity against linezolid-resistant coagulase-negative Staphylococcus assessed as percent susceptible strain by CLSI method
Staphylococcus aureus [35] = assay: Antimicrobial activity against linezolid-resistant Staphylococcus aureus assessed as inhibition of microbial growth at 16 ug/ml by CLSI method
Staphylococcus aureus [36] = assay: Antimicrobial activity against oxacillin-resistant Staphylococcus aureus assessed as inhibition of microbial growth at 0.5 ug/ml by CLSI method
[37] = Antimicrobial activity against oxacillin-susceptible coagulase-negative Staphylococcus aureus assessed as percent susceptible strain by CLSI method
Staphylococcus [38] = assay: Antimicrobial activity against linezolid-resistant coagulase-negative Staphylococcus assessed as inhibition of microbial growth at 16 ug/ml by CLSI method
Staphylococcus aureus [39] = assay: Antimicrobial activity against methicillin-resistant Staphylococcus aureus by CLSI method
Staphylococcus [40] = assay: Antimicrobial activity against linezolid-resistant coagulase-negative Staphylococcus assessed as inhibition of microbial growth at 256 ug/ml by CLSI method
Staphylococcus [41] = assay: Antimicrobial activity against linezolid-resistant coagulase-negative Staphylococcus by CLSI method
Staphylococcus aureus [42] = assay: Antimicrobial activity against oxacillin-susceptible Staphylococcus aureus assessed as inhibition of microbial growth at =< 0.25 ug/ml by CLSI method
Staphylococcus aureus [43] = assay: Antimicrobial activity against linezolid-susceptible Staphylococcus aureus assessed as inhibition of microbial growth at 4 ug/ml by CLSI method
Staphylococcus aureus [44] = assay: Antimicrobial activity against linezolid-resistant Staphylococcus aureus by CLSI method
Staphylococcus aureus [45] = assay: Antimicrobial activity against oxacillin-susceptible coagulase-negative Staphylococcus aureus assessed as inhibition of microbial growth at 2 ug/ml by CLSI method
Staphylococcus [46] = assay: Antimicrobial activity against linezolid-resistant coagulase-negative Staphylococcus assessed as inhibition of microbial growth at 64 ug/ml by CLSI method
Staphylococcus aureus [47] = assay: Antimicrobial activity against linezolid-susceptible Staphylococcus aureus assessed as percent susceptible strain by CLSI method
Staphylococcus aureus [48] = assay: Antimicrobial activity against oxacillin-susceptible Staphylococcus aureus assessed as inhibition of microbial growth at 4 ug/ml by CLSI method

## CC(=O)NC[C@H]1CN(c2ccc(N3CCOCC3)c(F)c2)C(=O)O1 [LINEZOLID]
Staphylococcus aureus [1]
  inhibition at 2 µg/mL: 91.1%
Staphylococcus aureus [2]
  inhibition at 4 µg/mL: 100%
Staphylococcus [3]
  inhibition at 1 µg/mL: 80.4%
Staphylococcus aureus [4]
  inhibition at 0.5 µg/mL: 9.8%
Staphylococcus [5]
  MIC50: 1 µg/mL (≈ 2.96 µM)
  MIC90: 2 µg/mL (≈ 5.93 µM)
Staphylococcus aureus [6]
  MIC50: 2 µg/mL (≈ 5.93 µM)
  MIC90: 4 µg/mL (≈ 11.9 µM)
Staphylococcus aureus [7]
  inhibition at 1 µg/mL: 75.6%
Staphylococcus aureus [8]
  inhibition at 1 µg/mL: 45.2%
Staphylococcus aureus [9]
  inhibition at 0.5 µg/mL: 2.4%
Staphylococcus [10]
  inhibition (INH): 3%
Staphylococcus [11]
  inhibition at 4 µg/mL: 100%
Staphylococcus aureus [12]
  MIC50: 1 µg/mL (≈ 2.96 µM)
  MIC90: 2 µg/mL (≈ 5.93 µM)
Staphylococcus aureus [13]
  inhibition at 4 µg/mL: 100%
Staphylococcus aureus [14]
  Activity: 100%
Staphylococcus aureus [15]
  inhibition at 0.5 µg/mL: 0.5%
Staphylococcus aureus [16]
  inhibition at 1 µg/mL: 51%
Staphylococcus [17]
  MIC50: 1 µg/mL (≈ 2.96 µM)
  MIC90: 2 µg/mL (≈ 5.93 µM)
Staphylococcus aureus [18]
  inhibition at 2 µg/mL: 84.6%
Staphylococcus aureus [19]
  inhibition at 2 µg/mL: 99%
Staphylococcus [20]
  inhibition at 0.5 µg/mL: 8%
Staphylococcus [21]
  inhibition at 2 µg/mL: 99%
Staphylococcus aureus [22]
  inhibition (INH): 4.9%
Staphylococcus [23]
  Activity: 100%
Staphylococcus aureus [24]
  inhibition at 1 µg/mL: 81.6%
Staphylococcus aureus [25]
  MIC50: 2 µg/mL (≈ 5.93 µM)
  MIC90: 2 µg/mL (≈ 5.93 µM)
Staphylococcus [26]
  inhibition at 32 µg/mL: 60%
Staphylococcus aureus [27]
  inhibition (INH): 1.3%
Staphylococcus aureus [28]
  inhibition (INH): 2%
Staphylococcus [29]
  MIC50: 1 µg/mL (≈ 2.96 µM)
  MIC90: 2 µg/mL (≈ 5.93 µM)
Staphylococcus aureus [30]
  inhibition at 2 µg/mL: 98.7%
Staphylococcus aureus [31]
  inhibition at 1 µg/mL: 40.5%
Staphylococcus [32]
  inhibition at 128 µg/mL: 80%
Staphylococcus aureus [33]
  Activity: 0%
Staphylococcus [34]
  Activity: 0%
Staphylococcus aureus [35]
  inhibition at 16 µg/mL: 100%
Staphylococcus aureus [36]
  inhibition at 0.5 µg/mL: 4%
[37]
  Activity: 100%
Staphylococcus [38]
  inhibition at 16 µg/mL: 60%
Staphylococcus aureus [39]
  MIC: 16 µg/mL (≈ 47.4 µM)
Staphylococcus [40]
  inhibition at 256 µg/mL: 100%
Staphylococcus [41]
  MIC50: 16 µg/mL (≈ 47.4 µM)
Staphylococcus aureus [42]
  inhibition (INH): 0.5%
Staphylococcus aureus [43]
  inhibition at 4 µg/mL: 100%
Staphylococcus aureus [44]
  MIC50: 16 µg/mL (≈ 47.4 µM)
Staphylococcus aureus [45]
  inhibition at 2 µg/mL: 100%
Staphylococcus [46]
  inhibition at 64 µg/mL: 80%
Staphylococcus aureus [47]
  Activity: 100%
Staphylococcus aureus [48]
  inhibition at 4 µg/mL: 100%
